Experimental data: patent publication US20260317312A1, “ISOXAZOLIDINES AS RIPK1 INHIBITORS AND USE THEREOF” (GENZYME CORPORATION, priority 2023, published 2026)
pIC50: −log10 of the molar value.

Key:
[1] = target: T1, hRIPK1 (aa 1-375) fusion protein (Homo sapiens, UniProt Q13546); experiment: Receptor-Interacting Protein Kinase 1 inhibition, ADP Glo assay (conversion of ATP to ADP due to autophosphorylation); format: biochemical; settings: ATP 50 μM, 30 min preincubation, 240 min incubation, room temperature, DMSO 1%
T1 construct: hRIPK1 (aa 1-375) fusion protein
T1 sequence (Q13546 1-375): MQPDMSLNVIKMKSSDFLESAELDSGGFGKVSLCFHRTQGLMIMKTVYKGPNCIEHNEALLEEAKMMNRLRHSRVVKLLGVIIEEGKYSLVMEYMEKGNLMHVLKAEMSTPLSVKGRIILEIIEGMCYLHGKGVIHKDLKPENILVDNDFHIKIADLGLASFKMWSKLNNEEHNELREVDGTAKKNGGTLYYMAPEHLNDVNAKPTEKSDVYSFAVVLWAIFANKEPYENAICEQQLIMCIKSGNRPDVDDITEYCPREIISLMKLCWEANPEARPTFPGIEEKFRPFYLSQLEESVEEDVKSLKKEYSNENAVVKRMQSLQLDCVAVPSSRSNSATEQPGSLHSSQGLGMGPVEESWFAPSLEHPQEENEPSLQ
Protocol: The catalytic activity of RIPK1 was measured by monitoring the conversion of Adenosine triphosphate (ATP) to Adenosine diphosphate (ADP) due to autophosphorylation using an ADP-Glo kinase kit (Promega, catalog no. V9104).
In detail, 2 μl recombinantly produced hRIPK1 (aa 1-375) fusion protein (end concentration 3.6 μg/ml) and 2 μl compound (end concentration 33300-1.69 nM; DMSO end concentration 1%) were incubated for 30 minutes at room temperature and then 2 μl ATP (ADP Glo kit, end concentration 50 μM) were added. After another 240 minutes incubation at room temperature, 5 μl Promega ADP-Glo reagent I was added to quench the reaction and deplete unconsumed ATP. After an incubation period of 30 minutes, 10 μl Promega ADP-Glo detection reagent II was added resulting in conversion of ADP to ATP, which generates a light-reaction between luciferase and luciferin. Luminescence was quantified after 30 minutes with a Pherastar FS (BMG LABTECH, Ortenberg).
The adjustment was obtained by nonlinear regression using the Levenberg Marquardt algorithm.

U937 cells = experiment: Cellular assay in U937 cells to measure activity of RIPK1-inhibitors on cell death (necroptosis); format: cell-based; settings: overnight (18 to 24 hrs), 37° C., MTS readout
From the text: Upon TNF-Receptor I ligation, Ser/Thr kinase RIPK1 is recruited to a transient receptor complex I. Upon modification of RIPK1 which promotes activation of RIPK1, complex lib can form, that involves recruitment of RIPK3 and MLKL (mixed lineage-kinase domain-like protein) which then translocates from the cytosol to the plasma membrane to execute cell death (Cai, Z. et al, Nat. Cell Biol. (2014)16:55-65).
Cell death was quantified in 96 well plates by determination of the amount of live cell using a CellTiter 96 Aqueous reagent (Promega), a calorimetric method to measure the number of live cells by reducing tetrazolium compound [3-(4,5-dimethylthiazol-2-yl)-5-(3-carboxymethoxyphenyl)-2-(4-sulfophenyl)-2H-tetrazolium, inner salt; MTS] into formazan. Absorbance of formazan was read at 490 nm. The inhibitory activity of the test compound was quantified in a concentration response curve (CRC) experiment.
Compounds were obtained as 10 mM stock solutions and were diluted 1 to 10 volumes with DMSO to yield a 1 mM solution. From this solution 2 μl were diluted with 998 μl growth medium. 100 μl of 2 μM compound solution was further diluted sequentially with a dilution factor of 2.5 by adding 150 μl growth medium. A total of 10 concentrations were tested ranging from 10 μM to 0.26 nM or from 1 μM to 0.07 nM.
U937 cells were cultured in RPM11640 Glutamax and 10% heat inactivated FBS. 50 μl cell suspension containing 1×10^6 cells/ml supplemented with 50 μM zVAD.fmk (Benzyloxycarbonyl-Val-Ala-Asp (Ome) fluoromethylketone) and 100 ng/ml recombinant human TNFα were dispensed in each well of a 96-well plate. 50 μl of compound dilutions (described in Cellular assay in U937 cells) were added and the cell suspension incubated overnight (18 to 24 hrs) at 37° C., 5% CO2 in a humidified atmosphere (95% rH). High (no compound) and low control (no TNFα, zVAD.fmk) were tested with 7 replicates; all compound concentrations were tested in duplicates on each experimental plate.
CellTiter 96 Aqueous reagent was mixed (100 μl PMS (phenazine methosulfate) solution/2 ml MTS (3-(4,5-[…])-5-(3-carboxymethoxyphenyl)-2-(4-sulfophenyl)-2H-tetrazolium, inner salt) solution) and 20 μl were added per well. After 4 hrs incubation at 37° C. (5% CO2 95% rH) optical density was measured at 490 nm on a microplate reader (Tecan Infinite M1000).
The % inhibition is expressed as percentage of the maximal inhibition value obtained in the absence of TNFα/zVAD.fmc.

[2] = Homo sapiens, U-937, TNFα/zVAD.fmk induced cell death (necroptosis)
[3] = TNFα/zVAD.fmk induced cell death (necroptosis)

SMILES	pIC50 [1]	pIC50 (U937 cells; [2])	pIC50 (U937 cells; [3])
NC(=O)c1cc(OCC2CCC(C(=O)N3OCC[C@H]3c3cc(F)cc(F)c3)C2)ncn1 (single isomer, unassigned; stereoisomer 3) [Compound 120]	7.49	–	6.47
N#Cc1cc(F)cc(OC[C@H]2CC[C@H](C(=O)N3OCC[C@H]3c3cnccn3)CC2)c1 [Compound 104, trans-3-fluoro-5-[[4-[(3S)-3-pyrazin-2-ylisoxazolidine-2-carbonyl]cyclohexyl]methoxy]benzonitrile]	7.62	7.52	–
C[C@]1(C(=O)N2OCC[C@H]2c2cncc(C#N)c2)C[C@@H](Nc2nccc(C(N)=O)n2)C1 [Compound 7, cis-2-((3-((S)-3-(5-cyanopyridin-3-yl)isoxazolidine-2-carbonyl)-3-methylcyclobutyl)amino)pyrimidine-4-carboxamide]	7.64	6.47	–
N#Cc1cncc([C@@H]2CCON2C(=O)[C@H]2CC[C@H](COc3cc(C#N)ccn3)CC2)c1 [Compound 94, trans-5-((S)-2-(4-(((4-cyanopyridin-2-yl)oxy)methyl)cyclohexane-1-carbonyl)isoxazolidin-3-yl)nicotinonitrile]	7.24	6.86	–
N#Cc1cc(F)cc(N[C@H]2C[C@@H](C(=O)N3OCC[C@H]3c3ccc(Cl)cc3)C2)c1 [Compound 25, cis-3-((3-((S)-3-(4-chlorophenyl)isoxazolidine-2-carbonyl)cyclobutyl)amino)-5-fluorobenzonitrile]	7.19	6.38	–
N#Cc1cc(F)cc([C@@H]2CCON2C(=O)[C@H]2C[C@H](n3ccc4cc(F)ccc43)C2)c1 [Compound 105, trans-3-fluoro-5-[(3S)-2-[3-(5-fluoroindol-1-yl)cyclobutanecarbonyl]isoxazolidin-3-yl]benzonitrile]	7.44	6.69	–
NC(=O)c1ccnc(N[C@H]2C[C@@H](C(=O)N3OCC[C@H]3c3cc(F)cc(F)c3)C2)n1 [Compound 1, cis-2-((3-((S)-3-(3,5-difluorophenyl)isoxazolidine-2-carbonyl)cyclobutyl)amino)pyrimidine-4-carboxamide]	7.72	7.47	–
N#Cc1cc(F)cc(N[C@H]2CC[C@@H](C(=O)N3OCC[C@H]3c3cc(F)cc(C#N)c3)CC2)c1 [Compound 39, cis-3-((S)-2-(4-((3-cyano-5-fluorophenyl)amino)cyclohexane-1-carbonyl)isoxazolidin-3-yl)-5-fluorobenzonitrile]	6.95	6.40	–
Cn1ccn(-c2ccc(OC[C@H]3CC[C@H](C(=O)N4OCC[C@H]4c4cc(F)cc(F)c4)CC3)c(F)c2)c1=O [Compound 68, trans-1-(4-((4-((S)-3-(3,5-difluorophenyl)isoxazolidine-2-carbonyl)cyclohexyl)methoxy)-3-fluorophenyl)-3-methyl-1,3-dihydro-2H-imidazol-2-one]	7.72	8.10	–
N#Cc1cc(F)cc([C@@H]2CCON2C(=O)C2CCCC(COc3cc(C(N)=O)ncn3)CC2)c1 (single isomer, unassigned; stereoisomer 1) [Compound 126]	7.60	–	7.27

The remaining molecules from weak to strong by pIC50 [1], led by results:

pIC50 [1]	SMILES	pIC50 (U937 cells; [2])	pIC50 (U937 cells; [3])
7.10	NC(=O)c1cc(OC[C@H]2CC[C@@H](C(=O)N3OCC[C@H]3c3cc(F)cc(F)c3)CC2)ncn1 [Compound 54, cis-6-((4-((S)-3-(3,5-difluorophenyl)isoxazolidine-2-carbonyl)cyclohexyl)methoxy)pyrimidine-4-carboxamide]	6.44	–
7.23	N#Cc1cc(F)cc([C@@H]2CCON2C(=O)[C@H]2CC[C@H](CNc3cc(C#N)ncn3)CC2)c1 [Compound 30, trans-6-(((4-((S)-3-(3-cyano-5-fluorophenyl)isoxazolidine-2-carbonyl)cyclohexyl)methyl)amino)pyrimidine-4-carbonitrile]	6.58	–
7.24	N#Cc1ccc(OC[C@H]2CC[C@H](C(=O)N3OCC[C@H]3c3cnccn3)CC2)nc1 [Compound 103, trans-6-[[4-[(3S)-3-pyrazin-2-ylisoxazolidine-2-carbonyl]cyclohexyl]methoxy]pyridine-3-carbonitrile]	7.01	–
7.30	NC(=O)c1cc(OC[C@H]2CC[C@H](C(=O)N3OCC[C@H]3c3cc(F)cc(F)c3)CC2)ncn1 [Compound 47, trans-6-((4-((S)-3-(3,5-difluorophenyl)isoxazolidine-2-carbonyl)cyclohexyl)methoxy)pyrimidine-4-carboxamide]	7.68	–
7.32	NC(=O)c1ccc(F)c(OC[C@H]2CC[C@H](C(=O)N3OCC[C@H]3c3cnccn3)CC2)c1 [Compound 111, trans-4-fluoro-3-[[4-[(3S)-3-pyrazin-2-ylisoxazolidine-2-carbonyl]cyclohexyl]methoxy]benzamide]	6.82	–
7.33	NC(=O)c1ccc(OC[C@H]2CC[C@H](C(=O)N3OCC[C@H]3c3cnccn3)CC2)nc1 [Compound 102, trans-6-[[4-[(3S)-3-pyrazin-2-ylisoxazolidine-2-carbonyl]cyclohexyl]methoxy]pyridine-3-carboxamide]	6.59	–
7.33	NC(=O)c1cccc(OC[C@H]2CC[C@H](C(=O)N3OCC[C@H]3c3ccccn3)CC2)c1 [Compound 131, trans-3-[[4-[(3S)-3-(2-pyridyl)isoxazolidine-2-carbonyl]cyclohexyl]methoxy]benzamide]	6.63	–
7.54	N#Cc1ccnc(N[C@H]2C[C@@H](C(=O)N3OCC[C@H]3c3ccc(F)c(F)c3)C2)n1 [Compound 21, cis-2-((3-((S)-3-(3,4-difluorophenyl)isoxazolidine-2-carbonyl)cyclobutyl)amino)pyrimidine-4-carbonitrile]	6.67	–
7.54	N#Cc1cncc([C@@H]2CCON2C(=O)[C@H]2CC[C@H](COc3cccc(C(N)=O)c3)CC2)c1 [Compound 73, trans-3-((4-((S)-3-(5-cyanopyridin-3-yl)isoxazolidine-2-carbonyl)cyclohexyl)methoxy)benzamide]	7.59	–
7.80	O=C([C@H]1C[C@@H](n2cnc3ccccc32)C1)N1OCC[C@H]1c1cc(F)cc(F)c1 [Compound 41, cis-(3-(1H-benzo[d]imidazol-1-yl)cyclobutyl)((S)-3-(3,5-difluorophenyl)isoxazolidin-2-yl)methanone]	7.21	–
7.85	NC(=O)c1cc(OCC2CCCC(C(=O)N3OCC[C@H]3c3cc(F)cc(F)c3)CC2)ncn1 (single isomer, unassigned; stereoisomer 2) [Compound 123]	–	7.62
7.85	N#Cc1cc(F)cc([C@@H]2CCON2C(=O)[C@H]2CC[C@H](COc3cc(C#N)ccn3)CC2)c1 [Compound 91, trans-2-[[4-[(3S)-3-(3-cyano-5-fluoro-phenyl)isoxazolidine-2-carbonyl]cyclohexyl]methoxy]pyridine-4-carbonitrile]	7.41	–
